Key:
[1] = test system: M. furfur; experiment: Zone of inhibition against M. furfur, comparison with other known anti-dandruff agents (Example 5); format: cell-based
From the text: M. furfur is one of the microorganism, which causes dandruff Method of Analysis: Zone of Inhibition Principle: Larger the zone of inhibition greater is the anti-dandruff activity.

[2] = Viscosity booster effect in shampoo formulation; conditions: 15% active sodium lauryl ether sulfate, 2% booster
[3] = test system: M. furfur; experiment: Zone of inhibition of M. furfur in SLES, comparison with Undecylenic amido propyl betain (Example 7); format: cell-based
From the text: Undecylenic amido propyl betain is a reported anti-dandruff product, so Undecylenic amidopropyl dimethyl Hydroxy ethyl ammonium undecylenate was compared. Carried out of zone of inhibition of M. furfur against 1, 2%, 5% & 7% Undecylenic amido propyl betain in SLES and compared it with Undecylenic amido propyl dimethyl Hydroxy ethyl ammonium undecylenate

Molecule	Comments ([1]; Concent. 0.5%)	Zone of inhibition in mm ([1]; Concent. 0.5%)	Comments ([1]; Concent. 1%)	Zone of inhibition in mm ([1]; Concent. 1%)	Comments ([1]; Concent. 1.5%)	Zone of inhibition in mm ([1]; Concent. 1.5%)	Comments ([1]; Concent. 2%)	Zone of inhibition in mm ([1]; Concent. 2%)	also measured
C=CCCCCCCCCC(=O)NCCO [Undecylenic mono ethanolamide]	Not effective	0 mm	Less	2 mm	Less	4 mm	Less	6 mm	–
Cocomonoethanolamide [CMEA]	–	–	–	–	–	–	–	–	Viscosity in cps at 28° C. ([2]; Sodium chloride 0.5%): 55 cps; Viscosity in cps at 28° C. ([2]; Sodium chloride 1.0%): 600 cps; Viscosity in cps at 28° C. ([2]; Sodium chloride 1.5%): 3000 cps; Viscosity in cps at 28° C. ([2]; Sodium chloride 2.0%): 11000 cps; Viscosity in cps at 28° C. ([2]; Sodium chloride 2.5%): 17000 cps
Undecylenic monoethanol amido sulfosuccinate	Not effective	0 mm	Not effective	0 mm	Not effective	0 mm	Not effective	0 mm	–
C=CCCCCCCCCC(=O)NCCC[N+](C)(C)CC(=O)[O-] [Undecylenic amidopropyl betaine]	–	–	–	–	–	–	–	–	Comments ([3]; 1%): Less; Zone of inhibition in mm ([3]; 1%): 3 mm; Comments ([3]; 2%): Less; Zone of inhibition in mm ([3]; 2%): 6 mm; Comments ([3]; 5%): Less; Zone of inhibition in mm ([3]; 5%): 6 mm; Comments ([3]; 7%): Effective; Zone of inhibition in mm ([3]; 7%): 8 mm
C=CCCCCCCCCC(=O)NCCC[N+](C)(C)CCOCCO.[Cl-] [Undecylenic amidopropyl dimethyl Hydroxy ethoxy ethyl ammonium chloride]	Less	2 mm	Less	3 mm	Less	6 mm	Effective	8 mm	–

— patent US7518005B2, “Water-soluble anti-dandruff compounds and compositions thereof” (Galaxy Surfactants Limited, priority 2005, dated 2009)
